Molecules are shown by their SMILES. The source made the active and inactive calls. The calls are words filed in the database; no cut-off is given here.

As a reminder, the IC50 is the concentration needed to halve the response being measured.

Series [1] deals with Plasmodium falciparum. The series can be described thus: Antimalarial activity against chloroquine sensitive Plasmodium falciparum D10 infected in human red blood cells assessed as reduction in parasite growth measured after 72 hrs by parasite lactate dehydrogenase assay. It counts as functional, organism-based. The note with it: D10, 72 h.
In series [2] the test system is Plasmodium falciparum. Briefly: Antimalarial activity against chloroquine resistant Plasmodium falciparum W2 infected in human red blood cells assessed as reduction in parasite growth measured after 72 hrs by parasite lactate dehydrogenase assay. It counts as functional, organism-based. The note with it: W2, 72 h.
In series [3] the test system is Leishmania infantum. The series can be described thus: Antileishmanial activity against Leishmania infantum (MHOM/TN/80/IPTI) promastigotes assessed as reduction in parasite viability measured after 72 hrs by MTT assay. It counts as functional, organism-based. Particulars: MHOM/TN/80/IPT.
Series [4] concerns Leishmania tropica. Briefly: Antileishmanial activity against Leishmania tropica (MHOM/SY/2012/ISS3130) promastigotes assessed as reduction in parasite viability at 60 uM measured after 72 hrs by MTT assay. Type of series: functional, organism-based. In general terms: Tetrazolium assays rely on reduction of a dye to a coloured formazan, in cell work by metabolically active cells.

For series [5], the system named is Leishmania tropica. The series can be described thus: Antileishmanial activity against Leishmania tropica (MHOM/SY/2012/ISS3130) promastigotes assessed as reduction in parasite viability measured after 72 hrs by MTT assay. The note with it: MHOM/SY/2012/ISS3130, 72 h. It counts as functional, organism-based.
The test system of series [6] is Leishmania infantum. Briefly: Antileishmanial activity against Leishmania infantum (MHOM/TN/80/IPTI) promastigotes assessed as reduction in parasite viability at 60 uM measured after 72 hrs by MTT assay. It counts as functional, organism-based. The note with it: MHOM/TN/80/IPT.
Series [7] is described as follows: Selectivity index, ratio of IC50 for antimalarial activity against chloroquine resistance Plasmodium falciparum W2 infected in human red blood cells to IC50 for Cytotoxicity against mouse BMDM cells. It counts as toxicity, cell-based. Particulars: read-out: Selectivity Index.
Series [8] deals with Plasmodium falciparum. Briefly: Antimalarial activity against […] late stage (IV-V) Plasmodium falciparum 3D7 gametocytes expressing CBG99 luciferase infected in human red blood cells assessed as reduction in gametocyte viability measured after 72 hrs by luminescence based assay. Type of series: functional, organism-based. Particulars: 3D7, 72 h.
Series [9] is described as follows: Selectivity index, ratio of IC50 for antileishmanial activity against Leishmania tropica (MHOM/SY/2012/ISS3130) promastigotes to IC50 for Cytotoxicity against mouse BMDM cells. The note with it: read-out: Selectivity Index. It counts as toxicity, cell-based.
For the next series, the system named is BMDM. Briefly: Cytotoxicity against mouse BMDM cells assessed as reduction in cell viability incubated for 72 hrs by MTT assay. It counts as cell-based.
Series [10] can be described thus: Selectivity index, ratio of IC50 for antileishmanial activity against Leishmania infantum (MHOM/TN/80/IPTI) promastigotes to IC50 for Cytotoxicity against mouse BMDM cells. Type of series: toxicity, cell-based. The note with it: read-out: Selectivity Index.
Series [11] is described as follows: Selectivity index, ratio of IC50 for antimalarial activity against chloroquine sensitive Plasmodium falciparum D10 infected in human red blood cells to IC50 for cytotoxicity against mouse BMDM cells. It counts as toxicity, cell-based. Particulars: read-out: Selectivity Index.
For series [12], the system named is Plasmodium falciparum. The series can be described thus: Antimalarial activity against chloroquine sensitive Plasmodium falciparum D10 infected in human red blood cells assessed as reduction in parasite growth at 60 uM measured after 72 hrs by parasite lactate dehydrogenase assay. Type of series: functional, organism-based.
For series [13], the system named is Plasmodium falciparum. The series can be described thus: Antimalarial activity against chloroquine resistant Plasmodium falciparum W2 infected in human red blood cells assessed as reduction in parasite growth at 60 uM measured after 72 hrs by parasite lactate dehydrogenase assay. It counts as functional, organism-based.

As to `BrC1=NOC(c2nnc(-c3ccccc3)s2)C1` (stereo not given), the IC50 with Plasmodium falciparum [1] stood at 22.9 µM; in the series on Plasmodium falciparum [2], 41.3 µM; in the series on Leishmania infantum [3] it was 60.3 µM. Further, the inhibition result with Leishmania tropica [4] is “inactive”.
For the molecule `BrC1=NOC(c2nc(-c3ccccc3)no2)C1` (stereo not given), the IC50 with Plasmodium falciparum [1] stood at 52.7 µM; in the series on Plasmodium falciparum [2], 64.8 µM; with Leishmania infantum [3], 17.3 µM; in the series on Leishmania tropica [5], 43 µM.
On to `C[C@@H]1[C@H](O)[C@@H](C)/C=C/C=C/C=C/C=C/C=C/C=C/C=C/[C@H](O[C@@H]2O[C@H](C)[C@@H](O)[C@H](N)[C@@H]2O)C[C@@H]2O[C@](O)(C[C@@H](O)C[C@@H](O)[C@H](O)CC[C@@H](O)C[C@@H](O)CC(=O)O[C@H]1C)C[C@H](O)[C@H]2C(=O)O` [AMPHOTERICIN B], for which the half-inhibitory concentration (IC50) with Leishmania infantum [3] amounted to 0.11 µM.
On to `FC(F)(F)c1ccc(-c2noc(C3CC(Br)=NO3)n2)cc1` (stereo not given), for which the IC50 in the series with Plasmodium falciparum [1] was found to be 31 µM; in the series on Plasmodium falciparum [2], 34 µM; with Leishmania infantum [3], 8.7 µM; in the series on Leishmania tropica [5] it was 6.9 µM.
Regarding `BrC1=NOC(c2nc(-c3ccc4c(c3)OCCO4)no2)C1` (stereo not given), the IC50 in the series on Plasmodium falciparum [1] was 29.8 µM; with Plasmodium falciparum [2], 32.7 µM; with Leishmania infantum [3] it was 25.6 µM; in the series on Leishmania tropica [5], 39.4 µM.
Consider `BrC1=NOC(c2nnc(-c3ccccc3)o2)C1` (stereo not given), for which the IC50 in the series on Plasmodium falciparum [1] is 16.7 µM; in the series with Plasmodium falciparum [2], 15.1 µM. The inhibition result in the series with Leishmania infantum [6] and in the series with Leishmania tropica [4] was “inactive” in each case.
For the molecule `O=C(O)c1ccc(-c2noc(C3CC(Br)=NO3)n2)s1` (stereo not given), the IC50 in the series with Plasmodium falciparum [1] came to 45.9 µM; with Plasmodium falciparum [2] it was 40.4 µM. Moreover, the inhibition result in the series on Leishmania infantum [6] and in the series with Leishmania tropica [4] was “inactive” in each case.
For `BrC1=NOC(c2ncc(-c3ccccc3)o2)C1` (stereo not given), the IC50 with Plasmodium falciparum [1] is 32.2 µM; in the series with Plasmodium falciparum [2], 39.3 µM; in the series on Leishmania tropica [5], 50.7 µM. Further, the inhibition entry in the series with Leishmania infantum [6] is “inactive”.
With `BrC1=NOC(c2nc(-c3cccs3)no2)C1` (stereo not given), the IC50 in the series on Plasmodium falciparum [1] was found to be 52.7 µM; with Plasmodium falciparum [2] it was 46 µM; in the series on Leishmania infantum [3] it was 26.2 µM; in the series on Leishmania tropica [5] it was 24.9 µM.
Regarding `CC(C)(C)c1ccc(-c2nnc(C3CC(Br)=NO3)o2)cc1` (stereo not given), the selectivity ratio in [7] was found to be 690; in series [9], 5; in series [10] it was 11; in [11], 1140. In addition, the IC50 with Plasmodium falciparum [1] is 0.035 µM; in the series with Plasmodium falciparum [2], 0.058 µM; with Plasmodium falciparum [8], 10.4 µM; in the series on Leishmania infantum [3], 3.5 µM; with BMDM, 40 µM; with Leishmania tropica [5] it was 7.5 µM.
On to `O=C(O)c1ccc(-c2noc(C3CC(Br)=NO3)n2)cc1` (stereo not given), for which the IC50 was determined as 36.9 µM with Plasmodium falciparum [1] and 45.3 µM in the series on Plasmodium falciparum [2]. The inhibition entry in the series with Leishmania infantum [6] and with Leishmania tropica [4] was “inactive” throughout.
On to `Fc1ccc(-c2noc(C3CC(Br)=NO3)n2)cc1` (stereo not given), for which the IC50 worked out at 9 µM with Leishmania infantum [3] and 10.9 µM in the series on Leishmania tropica [5]. Further, the inhibition result in the series on Plasmodium falciparum [12] and in the series with Plasmodium falciparum [13] was “inactive” throughout.
For `BrC1=NOC(c2nc(-c3ccsc3)no2)C1` (stereo not given), the IC50 in the series with Plasmodium falciparum [1] is 58.3 µM; in the series with Plasmodium falciparum [2], 48.1 µM; with Leishmania infantum [3], 27.3 µM; in the series on Leishmania tropica [5], 32.6 µM.
For the molecule `BrC1=NOC(c2nc(-c3ccc4ccccc4c3)no2)C1` (stereo not given), the IC50 is 27.8 µM in the series on Plasmodium falciparum [1], 27.2 µM in the series on Plasmodium falciparum [2], 10.5 µM with Leishmania infantum [3] and 5.3 µM in the series with Leishmania tropica [5].
With `BrC1=NOC(c2nc(-c3ccccc3)n[nH]2)C1` (stereo not given), the IC50 with Plasmodium falciparum [1] came out at 35.3 µM; with Plasmodium falciparum [2] it was 43 µM. Besides, the inhibition result in the series with Leishmania infantum [6] and in the series on Leishmania tropica [4] was “inactive” each time.
On to `CC(C)(C)c1ccc(-c2noc(C3CC(Br)=NO3)n2)cc1` (stereo not given), for which the selectivity ratio in series [7] is 11; in series [9], 120; in [10] it was 129; in [11] it was 12. For the same molecule, the IC50 in the series with Plasmodium falciparum [1] turned out to be 3.1 µM; in the series with Plasmodium falciparum [2] it was 3.5 µM; with Leishmania infantum [3], 0.29 µM; with BMDM, 37.3 µM; in the series on Leishmania tropica [5], 0.31 µM.
In the case of `Nc1ccc(-c2noc(C3CC(Br)=NO3)n2)cc1` (stereo not given), the IC50 came to 45.7 µM with Plasmodium falciparum [1], 39.5 µM in the series with Plasmodium falciparum [2], 28.8 µM in the series with Leishmania infantum [3] and 33.8 µM in the series with Leishmania tropica [5].
On the same counts, the results for `BrC1=NOC(c2nc(-c3ccccc3)cs2)C1` (stereo not given) are 45.8 µM, 39.7 µM, 28.8 µM and 33.8 µM.
On the same counts, the results for `Oc1ccc(-c2noc(C3CC(Br)=NO3)n2)cc1` (stereo not given) are 39 µM, 32.5 µM, 14.7 µM and 25.6 µM.
With `N[C@H](c1nc(-c2ccccc2)no1)[C@@H]1CC(Br)=NO1`, the inhibition result in the series with Plasmodium falciparum [12] and in the series on Plasmodium falciparum [13] was “inactive” each time.
For the molecule `COc1ccc(-c2noc(C3CC(Br)=NO3)n2)cc1` (stereo not given), the IC50 in the series on Plasmodium falciparum [1] amounted to 34.4 µM; with Plasmodium falciparum [2], 42.5 µM; with Leishmania infantum [3], 12 µM; in the series on Leishmania tropica [5] it was 14.7 µM.

The record behind these values is ChEMBL document CHEMBL4837267, “Development of Potent 3-Br-isoxazoline-Based Antimalarial and Antileishmanial Compounds” (ACS Med Chem Lett, 2021).
